Test results: the supplement of paper PMC10307832

Experiments:
Assay in all cases: relative viability (nuclei count vs DMSO), 5 days (fraction); higher = more cells survive
Crenolanib + Dasatinib = compound: CC1(COc2ccc3c(c2)ncn3-c2ccc3cccc(N4CCC(N)CC4)c3n2)COC1 [Crenolanib] + Cc1nc(Nc2ncc(C(=O)Nc3c(C)cccc3Cl)s2)cc(N2CCN(CCO)CC2)n1 [Dasatinib] (partner 0.075 µM)
In short: (§1)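 Lung cancer cell lines, seeded in 1536-well plates, were treated the following day by pin tool with a single drug or with five library-drug doses (not always all listed) in √10 steps on top of a fixed anchor-drug dose. Cells were fixed and nuclei stained in one step after 5 days, and nuclei were counted. Relative viability is the nuclei count for treated wells divided by that for vehicle wells, reported as medians of duplicate plates.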

Crenolanib + Luminespib = compound: CC1(COc2ccc3c(c2)ncn3-c2ccc3cccc(N4CCC(N)CC4)c3n2)COC1 [Crenolanib] + CCNC(=O)c1noc(-c2cc(C(C)C)c(O)cc2O)c1-c1ccc(CN2CCOCC2)cc1 [Luminespib] (partner 0.01 µM)
In short: as §1

Crenolanib + OSI-027 = compound: CC1(COc2ccc3c(c2)ncn3-c2ccc3cccc(N4CCC(N)CC4)c3n2)COC1 [Crenolanib] + COc1cccc2cc(-c3nc([C@H]4CC[C@H](C(=O)O)CC4)n4ncnc(N)c34)[nH]c12 [OSI-027] (partner 0.5 µM)
In short: as §1

Crenolanib + Tozasertib = compound: CC1(COc2ccc3c(c2)ncn3-c2ccc3cccc(N4CCC(N)CC4)c3n2)COC1 [Crenolanib] + Cc1cc(Nc2cc(N3CCN(C)CC3)nc(Sc3ccc(NC(=O)C4CC4)cc3)n2)n[nH]1 [Tozasertib] (partner 0.1 µM)
In short: as §1

## UMC-11
Crenolanib + Dasatinib; first compound 0.01 µM
  relative viability: 0.45
Crenolanib + Dasatinib; first compound 0.03162 µM
  relative viability: 0.52
Crenolanib + Dasatinib; first compound 0.1 µM
  relative viability: 0.427
Crenolanib + Dasatinib; first compound 0.3162 µM
  relative viability: 0.506
Crenolanib + Dasatinib; first compound 1 µM
  relative viability: 0.481
Crenolanib + Luminespib; first compound 0.01 µM
  relative viability: 1.06
Crenolanib + Luminespib; first compound 0.03162 µM
  relative viability: 1.02
Crenolanib + Luminespib; first compound 0.1 µM
  relative viability: 1.02
Crenolanib + Luminespib; first compound 0.3162 µM
  relative viability: 1.11
Crenolanib + Luminespib; first compound 1 µM
  relative viability: 1.07
Crenolanib + OSI-027; first compound 0.01 µM
  relative viability: 0.523
Crenolanib + OSI-027; first compound 0.03162 µM
  relative viability: 0.535
Crenolanib + OSI-027; first compound 0.1 µM
  relative viability: 0.538
Crenolanib + OSI-027; first compound 0.3162 µM
  relative viability: 0.546
Crenolanib + OSI-027; first compound 1 µM
  relative viability: 0.514
Crenolanib + Tozasertib; first compound 0.01 µM
  relative viability: 0.193
Crenolanib + Tozasertib; first compound 0.03162 µM
  relative viability: 0.207
Crenolanib + Tozasertib; first compound 0.1 µM
  relative viability: 0.213
Crenolanib + Tozasertib; first compound 0.3162 µM
  relative viability: 0.189
Crenolanib + Tozasertib; first compound 1 µM
  relative viability: 0.192
